Data: patent US12384806B2, “Isopaucifloral F phosphate compound and pharmaceutical use thereof” (FUDAN UNIVERSITY, priority 2020, dated 2025)

Assays:
[1] = tested on: mouse osteoblast precursor cells MC3T3-E1 Subclone 14; assay: Differentiation-promoting effect, ALP enzyme activity assay; format: cell-based; details: for ALP enzyme activity relative values (experimental group/blank group): 6th day
Excerpt: (2) Study on the differentiation-promoting effect of compounds on mouse osteoblast precursor cells MC3T3-E1 Subclone 14 (see Table 2): MC3T3-E1 subclone 14 cells were digested with pancreatin and collected and then seeded into a 6-well plate at 4×10^4/well. […] The administration concentrations of the compounds were 10^−4˜10^−9 M, respectively; and the administration concentration of the positive control drug group genistein GEN was 10^−6 M, a concentration at which it had the highest osteogenesis promoting ability as reported in the literature. On the 6th day of administration, each well was washed twice with PBS, 150 uL of Western and IP cell lysate (with no protein inhibitor, commercially available from Beyotime) was then added to lyse the cells. This operation was performed on ice. 50 uL of cell lysate was diluted to 250 uL with PBS. 50 uL of dilution was additionally transferred to a 96-well plate for an ALP enzyme activity assay. The absorbance of each well in the 96-well plate was measured with a microplate reader at 405 nm.

[2] = tested on: mouse osteoblast precursor cells MC3T3-E1 Subclone 14; assay: Proliferation-promoting effect by MTT assay; format: cell-based; details: for Proliferation Rate: 6th day, MTT
Protocol: Genistein and estradiol were used as positive control groups. MC3T3-E1 Subclone 14 was cultured using the α-MEM medium containing 10% FBS in a constant temperature incubator at 37° C. with 5% CO2. The MC3T3-E1 Subclone 14 cells in logarithmic growth phase and in good condition were digested with addition of an appropriate amount of trypsin (commercially available from GIBCO), and the cells were collected. The cells were resuspended in the α-MEM medium containing 10% FBS, and seeded on a 96-well plate at an amount of 2000 cells per well. After cell adhesion, the medium was changed to the α-MEM medium containing 10% FBS of different concentrations of compounds at 200 μL per well. The cells with the culture fluid containing 0.2% DMSO added thereto were used as a negative control group of the medium. The medium was added to the wells without seeded cells as a blank control group. Six replicate wells were set for each concentration. The medium was changed once every 2 days, and on the 6th day of administration, a 20 μL MTT/PBS solution at 5 mg/mL was added to the above 96-well plate, and the incubation was continued for 4 hours. After the time point, the liquid was carefully aspirated and 150 μL of DMSO was added to each well to completely dissolve the purple crystal formazan formed by live cells and MTT. The optical density (OD) value was measured at 490 nm with a microplate reader. The proliferation rate was calculated according to the following formula: Proliferation rate=[(the average OD value of the administration group−the average OD value of the blank group)/(the average OD value of the culture fluid control group−the average OD value of the blank group)].

[3] = tested on: osteoblasts; assay: Formation of calcium nodules in osteoblasts (Alizarin Red); format: cell-based, mouse; details: 15th day
Protocol: (3) Study on the effect of target compounds on the formation of calcium nodules in osteoblasts (see FIG. 1 and Table 3 for details): after being digested, the cells were seeded into a 6-well plate at 4×10^4/well. […] The administration concentrations of the compounds were 10^−4˜10^−9 M, respectively; and the concentration of genistein is 10^−6 M. On the 15th day of administration, the medium was aspirated, each well was then washed twice with PBS, the cells were then fixed with 95% ethanol for 10 minutes and rinsed twice with double distilled water. 2 mL of a 0.1% Alizarin Red-Tris. HCl solution (PH=8.3) was added to each well, the cells were incubated at 37° C. for 30 minutes, then rinsed with double distilled water for several times, dried, and mounted. The formation of calcium nodules was further observed by taking pictures under a 40× microscope. Afterwards, 1 mL of a 10% cetylpyridinium chloride solution was added to each well, and the incubation was carried out for 30 minutes to release the Alizarin Red staining. The solution was transferred to a 96-well plate at 200 uL per well, the absorbance was measured at 562 nm using a microplate reader, and a quantitative analysis of calcium nodules was performed.

[4] = Metabolic stability in human liver microsomes; format: in vitro ADME; details: 37° C.
Protocol: Experimental method: the incubation system comprising human liver microsomes, cofactors, and PBS was pre-incubated at 37° C. for 3 minutes, and a substrate was added to start the reaction. Sampling was performed at 0, 1, 5, 10, 15, 20, 30, and 60 minutes after the start of the reaction, and an appropriate terminator was added to terminate the reaction. Sample treatment (n=3): appropriate internal standards were added to each; after vortexing, centrifugation was performed at a high speed, the supernatant was taken, and the substrate was detected by employing HPLC-MS/MS. The peak area at a time point 0 min was taken as 100%. Peak areas at other time points were converted to the remaining percentage, the natural logarithm of the remaining percentage at each time point versus incubation time was plotted, and a slope (−k) was calculated by linear regression, and then CLint (mL·min^−1·mg^−1) was calculated based on the inherent clearance (CLint)=(k×the volume of incubation solution)/mass of liver microsomes.

[5] = tested on: mouse mononuclear macrophages RAW264.7; assay: Bone resorption inhibition: TRAP-positive multinucleated osteoclast count; format: cell-based; details: 5 days; for Number of Osteoclasts (cell): control group 117
Protocol: After being cultured for 5 days, the cells were stained with a tartrate-resistant acid phosphatase TRAP incubation solution, mounted with glycerol gelatin, and observed under light microscope to count stained TRAP-positive multinucleated cells (as shown in FIG. 2). The inhibition rate of the administrated drug on the number of TRAP-positive multinucleated cells is (nTRAP-positive multinucleated osteoclasts in the negative control group−nTRAP-positive multinucleated osteoclasts in the drug administration group)/nTRAP-positive multinucleated osteoclasts in the negative control group×100%.

[6] = molecular target: estrogen receptor ERβ (Homo sapiens, UniProt Q92731); assay: Estrogen receptor agonism (earlier experiments of the research team)
Chain of estrogen receptor ERβ (Q92731 whole entry): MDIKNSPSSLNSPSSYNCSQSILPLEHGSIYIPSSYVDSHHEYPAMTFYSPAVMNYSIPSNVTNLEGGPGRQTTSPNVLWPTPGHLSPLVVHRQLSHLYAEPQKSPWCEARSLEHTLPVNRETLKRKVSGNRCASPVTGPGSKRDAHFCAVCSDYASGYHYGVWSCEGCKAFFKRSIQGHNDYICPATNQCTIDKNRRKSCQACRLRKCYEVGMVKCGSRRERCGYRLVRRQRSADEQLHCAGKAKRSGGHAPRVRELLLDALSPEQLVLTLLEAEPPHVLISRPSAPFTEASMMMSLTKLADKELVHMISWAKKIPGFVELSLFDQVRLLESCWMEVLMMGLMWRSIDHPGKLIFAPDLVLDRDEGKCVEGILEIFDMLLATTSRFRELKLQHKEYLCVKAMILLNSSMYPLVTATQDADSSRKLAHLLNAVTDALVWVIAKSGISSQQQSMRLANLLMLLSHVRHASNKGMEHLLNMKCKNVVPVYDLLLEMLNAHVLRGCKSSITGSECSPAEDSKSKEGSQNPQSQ

[7] = Determination of lipid-water partition coefficients (n-octanol/water, HPLC); format: physicochemical; details: 37° C.
Protocol: (1) Determination of lipid-water partition coefficients: a standard curve was first made. […] Their respective solution was subjected to the HPLC sample injection analysis. HPLC conditions were: mobile phase: 5%˜95% acetonitrile/water, gradient elution, a flow rate of 0.6 mL/min, a sample injection volume of 10 μL, a detection wavelength of 254/280 nm, run for 20 min. The retention time and peak area were recorded, and the standard curve was obtained by regressing the concentration and the peak area.
Moreover, 10 mL of water and 10 mL of n-octanol were taken into a 25 mL eggplant-shaped flask and stirred for 24 hours until the two phases were saturated with each other. The mixed solution was then transferred to a separatory funnel. Let it stand for liquid separation. 1 mL of the upper layer (saturated n-octanol layer) was taken, about 2 mg of the compound to be tested was added to vortex for 5 minutes to fully dissolve, and 1 mL of saturated aqueous phase was additionally taken and mixed with the saturated n-butanol phase in which the compound was dissolved. After vortexing for 5 minutes and oscillation for 24 hours in a water bath at 37° C., centrifugation was performed at 3500 rpm for 15 minutes. The upper n-octanol layer and the lower aqueous layer were respectively taken for the sample injection analysis under HPLC conditions. […]

Question: With `CCOP(=O)(OCC)OC1=C(c2cc(OC)cc(OC)c2)C(c2ccc(OP(=O)(OCC)OCC)cc2)c2c(OC)cc(OC)cc21` (stereo not drawn) [7a] as the compound, how does the “ALP enzyme activity relative values (experimental group/blank group)” value ([1]; 10^−4 M) read?
Answer: 2.362 ± 0.04

Question: And the “ALP enzyme activity relative values (experimental group/blank group)” value ([1]; 10^−5 M)?
Answer: 1.440 ± 0.31

Question: And the “ALP enzyme activity relative values (experimental group/blank group)” value ([1]; 10^−6 M)?
Answer: 1.023 ± 0.05

Question: What about the “ALP enzyme activity relative values (experimental group/blank group)” value ([1]; 10^−7 M) of the same compound?
Answer: 0.877 ± 0.01

Question: What about the “ALP enzyme activity relative values (experimental group/blank group)” value ([1]; 10^−8 M) of the same compound?
Answer: 0.860 ± 0.01

Question: What about the “ALP enzyme activity relative values (experimental group/blank group)” value ([1]; 10^−9 M) of the same compound?
Answer: 0.861 ± 0.05

Question: Which results are given for `CCOP(=O)(OCC)OC1=C(c2cc(OC)cc(OC)c2)C(c2ccc(OC)cc2)c2c(OC)cc(OC)cc21` (stereo not drawn) [7b]?
Answer: ALP enzyme activity relative values (experimental group/blank group) ([1]; 10^−4 M): 0.919 ± 0.04; ALP enzyme activity relative values (experimental group/blank group) ([1]; 10^−5 M): 0.986 ± 0.17; ALP enzyme activity relative values (experimental group/blank group) ([1]; 10^−6 M): 0.993 ± 0.01; ALP enzyme activity relative values (experimental group/blank group) ([1]; 10^−7 M): 1.195 ± 0.02; ALP enzyme activity relative values (experimental group/blank group) ([1]; 10^−8 M): 1.097 ± 0.07; ALP enzyme activity relative values (experimental group/blank group) ([1]; 10^−9 M): 0.899 ± 0.11

Question: Which “Proliferation Rate” value ([2]; 10^−4 M) does the source give for `C[C@]12CC[C@@H]3c4ccc(O)cc4CC[C@H]3[C@@H]1CC[C@@H]2O` [E2, estradiol] here?
Answer: 0.05 ± 0.002

Question: And the “Proliferation Rate” value ([2]; 10^−5 M)?
Answer: 0.82 ± 0.003

Question: And the “Proliferation Rate” value ([2]; 10^−6 M)?
Answer: 1.07 ± 0.019

Question: And the “Proliferation Rate” value ([2]; 10^−7 M)?
Answer: 1.08 ± 0.003

Question: What about the “Proliferation Rate” value ([2]; 10^−8 M) of the same compound?
Answer: 1.07 ± 0.005

Question: And the “Proliferation Rate” value ([2]; 10^−9 M)?
Answer: 1.06 ± 0.003

Question: What about the “ALP enzyme activity relative values (experimental group/blank group)” value ([1]; 10^−8 M) of the same compound?
Answer: 1.050 ± 0.02

Question: And the “Relative values of calcium nodule amount (experimental group/blank group)” value ([3]; 10^−8 M)?
Answer: 1.007 ± 0.02

Question: Which “Proliferation Rate” value ([2]; 10^−4 M) does the source give for `O=c1c(-c2ccc(O)cc2)coc2cc(O)cc(O)c12` [GEN, genistein] here?
Answer: 0.02 ± 0.0003

Question: And the “Proliferation Rate” value ([2]; 10^−5 M)?
Answer: 0.71 ± 0.007

Question: And the “Proliferation Rate” value ([2]; 10^−6 M)?
Answer: 1.05 ± 0.019

Question: And the “Proliferation Rate” value ([2]; 10^−7 M)?
Answer: 0.99 ± 0.003

Question: What about the “Proliferation Rate” value ([2]; 10^−8 M) of the same compound?
Answer: 1.01 ± 0.005

Question: And the “Proliferation Rate” value ([2]; 10^−9 M)?
Answer: 1.03 ± 0.003

Question: And the “ALP enzyme activity relative values (experimental group/blank group)” value ([1]; 10^−6 M)?
Answer: 1.341 ± 0.01

Question: What about the “Relative values of calcium nodule amount (experimental group/blank group)” value ([3]; 10^−6 M) of the same compound?
Answer: 1.028 ± 0.03

Question: Which “CLint(liver)” value [4] does the source give for `O=C1c2cc(O)cc(O)c2[C@@H](c2ccc(O)cc2)[C@@H]1c1cc(O)cc(O)c1` [Isopaucifloral F, isopaucifloral F] here?
Answer: 123.4 mL/min/kg

Question: What about the “T1/2” value [4] of the same compound?
Answer: 10.1 min

Question: What about the “Proliferation Rate” value ([2]; 10^−4 M) of the same compound?
Answer: 1.24 ± 0.028

Question: And the “Proliferation Rate” value ([2]; 10^−5 M)?
Answer: 1.06 ± 0.014

Question: And the “Proliferation Rate” value ([2]; 10^−6 M)?
Answer: 1.02 ± 0.024

Question: And the “Proliferation Rate” value ([2]; 10^−7 M)?
Answer: 0.98 ± 0.020

Question: What about the “Proliferation Rate” value ([2]; 10^−8 M) of the same compound?
Answer: 0.98 ± 0.045

Question: And the “Proliferation Rate” value ([2]; 10^−9 M)?
Answer: 0.95 ± 0.016

Question: What about the proliferation rates ([2]; highest value of each compound, concentration not given) of the same compound?
Answer: 124%

Question: What about the “ALP enzyme activity relative values (experimental group/blank group)” value ([1]; 10^−4 M) of the same compound?
Answer: 0.732 ± 0.03

Question: What about the “ALP enzyme activity relative values (experimental group/blank group)” value ([1]; 10^−5 M) of the same compound?
Answer: 0.951 ± 0.04

Question: And the “ALP enzyme activity relative values (experimental group/blank group)” value ([1]; 10^−6 M)?
Answer: 0.954 ± 0.02

Question: What about the “ALP enzyme activity relative values (experimental group/blank group)” value ([1]; 10^−7 M) of the same compound?
Answer: 1.135 ± 0.06

Question: And the “ALP enzyme activity relative values (experimental group/blank group)” value ([1]; 10^−8 M)?
Answer: 1.029 ± 0.11

Question: What about the “ALP enzyme activity relative values (experimental group/blank group)” value ([1]; 10^−9 M) of the same compound?
Answer: 0.864 ± 0.05

Question: And the “ALP enzyme activity, times those of the control group” value ([1]; highest value, concentration not given)?
Answer: 1.14 times

Question: What about the “ALP enzyme activity increased by” value ([1]; versus control group, concentration not given) of the same compound?
Answer: 13.5%

Question: And the “Relative Inhibition Rates (%)” value ([5]; 10^−4 M)?
Answer: 28.2%

Question: And the “Number of Osteoclasts (cell)” value ([5]; 10^−4 M)?
Answer: 84 cell

Question: And the “Relative Inhibition Rates (%)” value ([5]; 10^−6 M)?
Answer: 27.4%

Question: And the “Number of Osteoclasts (cell)” value ([5]; 10^−6 M)?
Answer: 85 cell

Question: And the “Relative Inhibition Rates (%)” value ([5]; 10^−8 M)?
Answer: 12.8%

Question: And the “Number of Osteoclasts (cell)” value ([5]; 10^−8 M)?
Answer: 102 cell

Question: And the “activity at estrogen receptor ERβ” value [6]?
Answer: selective agonist

Question: What about the “log P” value [7] of the same compound?
Answer: 1.34

Question: What about the “Relative values of calcium nodule amount (experimental group/blank group)” value ([3]; 10^−4 M) of the same compound?
Answer: 0.982 ± 0.04

Question: And the “Relative values of calcium nodule amount (experimental group/blank group)” value ([3]; 10^−5 M)?
Answer: 0.915 ± 0.03

Question: And the “Relative values of calcium nodule amount (experimental group/blank group)” value ([3]; 10^−6 M)?
Answer: 0.932 ± 0.03

Question: And the “Relative values of calcium nodule amount (experimental group/blank group)” value ([3]; 10^−7 M)?
Answer: 0.964 ± 0.03

Question: And the “Relative values of calcium nodule amount (experimental group/blank group)” value ([3]; 10^−8 M)?
Answer: 0.917 ± 0.03

Question: What about the “Relative values of calcium nodule amount (experimental group/blank group)” value ([3]; 10^−9 M) of the same compound?
Answer: 0.916 ± 0.03

Question: Which “Number of Osteoclasts (cell)” value ([5]; 10^−6 M) does the source give for `O=C(c1ccc(OCCN2CCCCC2)cc1)c1c(-c2ccc(O)cc2)sc2cc(O)ccc12` [Raloxifene] here?
Answer: 64 cell

Question: What about the “Number of Osteoclasts (cell)” value ([5]; 10^−8 M) of the same compound?
Answer: 67 cell

Question: What about the inhibition at 1 µM ([5]; Mus musculus, RAW264.7, 120 h, 10^−6 M, read-out: Relative Inhibition Rates (%)) of the same compound?
Answer: 45.3%

Question: And the inhibition at 0.01 µM ([5]; Mus musculus, RAW264.7, 120 h, 10^−8 M, read-out: Relative Inhibition Rates (%))?
Answer: 42.7%
